Patent US7199162B1, “Use of treosulfan for patient conditioning before bone marrow or blood stem cell transplantation” (Medac Gesellschaft fur Klinische Spezialpraparate mbH, priority 1999, dated 2007)

Legend:
[1] = system: donor-type chimerism in the recipient; assay: H-2-compatible allogenic bone-marrow transplantation trial (C.B10→B6); assay type: in vivo, mice; details: substance alone, treosulfan in fractionated doses
Procedure: Treosulfan administered in fractionated doses was also evaluated in an H-2-compatible allogenic bone-marrow transplantation trial (C.B10→B6). In this trial, an immunological reaction resulting in rejection of the transplant must be prevented by conditioning with e.g. treosulfan, before growth of the transplant is possible.

water solubility = assay type: physicochemical
[2] = non-haematological toxicity profile; details: general statement, in contrast to busulfan
[3] = pharmacokinetic properties after intravenous administration
[4] = system: haematopoietic stem cells in the host bone marrow; assay: cobblestone area forming cell assay (CAFC) on host bone marrow 24 hours after administration, murine bone-marrow transplantation model; assay type: in vivo; details: recipient mice (BG-Gpi-1b), 3×2500 mg/kg daily fractionation, CAFC 24 hours after administration
Procedure: The recipient mice (BG-Gpi-1^b) were treated with 3×2500 mg/kg or 7500 mg/kg (corresponding to 22.5 g/m^2) treosulfan or 50 mg/kg busulfan. 24 hours after administration the elimination of the different haematopoietic stem cells in the host bone marrow was ascertained using the in vitro cobblestone area forming cell assays (CAFC; cf. Ploemacher et al., Blood 78 (1991) 2527–2533).

Compound | induction of donor-type chimerism / conditioning before allogenic bone-marrow transplantation [1] | water-solubility (water solubility) | non-haematological toxicity (liver, kidney, CNS, lung) [2] | pharmacokinetic properties [3] | elimination of both the primitive and the "committed" progenitor cells [4]
CS(=O)(=O)OCCCCOS(C)(=O)=O [busulfan] | unable to bring about effective conditioning | low solubility |  |  | 
CS(=O)(=O)OC[C@H](O)[C@@H](O)COS(C)(=O)=O [treosulfan[…]] | almost complete and stable donor-type chimerism | consistent high water-solubility | no significant liver, kidney, CNS or lung toxicity | reliable and linear pharmacokinetic properties | 3 to 5 powers of ten
